Legend:
[1] = biological target: T1, Bromodomain-containing protein 4 (Homo sapiens, UniProt O60885); test: Binding affinity to BRD4 (1) (unknown origin) N-terminal bromodomain by TR-FRET assay
[2] = biological target: T2, Bromodomain-containing protein 9 (Homo sapiens, UniProt Q9H8M2)
T2 sequence (Q9H8M2 whole entry): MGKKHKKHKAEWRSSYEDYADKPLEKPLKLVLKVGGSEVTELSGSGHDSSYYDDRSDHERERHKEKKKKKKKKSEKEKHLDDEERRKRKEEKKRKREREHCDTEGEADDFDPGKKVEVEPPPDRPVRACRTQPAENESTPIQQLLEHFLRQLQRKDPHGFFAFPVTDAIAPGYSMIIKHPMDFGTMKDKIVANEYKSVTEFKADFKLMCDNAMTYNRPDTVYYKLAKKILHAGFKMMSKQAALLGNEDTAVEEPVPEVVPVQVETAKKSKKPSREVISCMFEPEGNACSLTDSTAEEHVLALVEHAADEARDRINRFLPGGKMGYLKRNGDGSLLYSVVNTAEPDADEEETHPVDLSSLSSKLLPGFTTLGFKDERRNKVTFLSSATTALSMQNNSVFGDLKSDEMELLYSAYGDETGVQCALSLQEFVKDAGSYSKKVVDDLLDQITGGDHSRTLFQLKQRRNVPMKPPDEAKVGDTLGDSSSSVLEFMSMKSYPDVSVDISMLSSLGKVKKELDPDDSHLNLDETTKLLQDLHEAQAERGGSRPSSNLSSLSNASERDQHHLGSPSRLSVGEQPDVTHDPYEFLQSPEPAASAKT
Description: Binding affinity to human partial length BRD9 (R130 to V259 residues) expressed in bacterial expression system by BROMOscan assay

[3] = Chromatographic hydrophobicity index, logD of the compound at pH 7.4 by HPLC analysis; assay type: physicochemical; conditions: buffer
[4] = biological target: T3, Peregrin (Homo sapiens, UniProt P55201); test: Binding affinity to human partial length BRPF1 (E627 to G740 residues) expressed in bacterial expression system by BROMOscan assay
T3 sequence (P55201 whole entry): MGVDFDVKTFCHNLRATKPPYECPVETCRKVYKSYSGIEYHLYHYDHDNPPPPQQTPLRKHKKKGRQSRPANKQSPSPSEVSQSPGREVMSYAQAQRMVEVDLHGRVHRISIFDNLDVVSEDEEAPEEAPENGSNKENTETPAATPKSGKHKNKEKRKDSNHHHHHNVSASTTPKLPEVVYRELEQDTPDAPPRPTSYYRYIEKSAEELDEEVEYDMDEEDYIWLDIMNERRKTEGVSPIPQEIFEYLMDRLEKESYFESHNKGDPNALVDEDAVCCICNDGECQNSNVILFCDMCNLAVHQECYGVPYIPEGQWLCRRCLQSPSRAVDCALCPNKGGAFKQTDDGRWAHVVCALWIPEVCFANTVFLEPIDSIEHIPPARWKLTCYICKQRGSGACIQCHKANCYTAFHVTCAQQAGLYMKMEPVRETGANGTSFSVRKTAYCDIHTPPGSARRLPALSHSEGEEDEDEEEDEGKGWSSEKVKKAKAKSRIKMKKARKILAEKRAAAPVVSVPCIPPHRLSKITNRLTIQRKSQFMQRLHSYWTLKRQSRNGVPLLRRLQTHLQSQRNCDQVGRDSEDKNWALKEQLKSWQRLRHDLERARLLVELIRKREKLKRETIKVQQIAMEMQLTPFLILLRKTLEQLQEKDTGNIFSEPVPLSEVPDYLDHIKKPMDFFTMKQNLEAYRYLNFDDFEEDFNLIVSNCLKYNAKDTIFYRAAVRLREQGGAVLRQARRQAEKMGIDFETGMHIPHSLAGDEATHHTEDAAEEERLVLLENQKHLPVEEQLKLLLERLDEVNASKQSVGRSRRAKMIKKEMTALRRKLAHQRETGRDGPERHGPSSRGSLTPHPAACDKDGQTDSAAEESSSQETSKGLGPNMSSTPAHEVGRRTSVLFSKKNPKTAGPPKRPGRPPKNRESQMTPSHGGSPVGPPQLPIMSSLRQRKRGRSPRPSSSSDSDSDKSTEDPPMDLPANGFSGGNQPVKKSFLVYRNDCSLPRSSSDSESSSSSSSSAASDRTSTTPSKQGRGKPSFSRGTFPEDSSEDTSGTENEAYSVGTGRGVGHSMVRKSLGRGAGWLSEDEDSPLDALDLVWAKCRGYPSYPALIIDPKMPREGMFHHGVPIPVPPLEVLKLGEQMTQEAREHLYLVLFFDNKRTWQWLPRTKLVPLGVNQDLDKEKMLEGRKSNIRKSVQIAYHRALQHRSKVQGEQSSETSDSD

[5] = biological target: T1, Bromodomain-containing protein 4; test: Binding affinity to human partial length BRD4 (1) (N44 to E168 residues) expressed in bacterial expression system by BROMOscan assay
[6] = biological target: T2, Bromodomain-containing protein 9; test: Binding affinity to BRD9 (unknown origin) N-terminal bromodomain by TR-FRET assay
[7] = organism: Homo sapiens; test: Selectivity index, ratio of IC50 for binding affinity to BRD4 (1) (unknown origin) N-terminal bromodomain to IC50 for binding affinity to BRD9 (unknown origin) N-terminal bromodomain
[8] = biological target: T4, Bromodomain-containing protein 7 (Homo sapiens, UniProt Q9NPI1); test: Binding affinity to BRD7 (unknown origin)
T4 sequence (Q9NPI1 whole entry): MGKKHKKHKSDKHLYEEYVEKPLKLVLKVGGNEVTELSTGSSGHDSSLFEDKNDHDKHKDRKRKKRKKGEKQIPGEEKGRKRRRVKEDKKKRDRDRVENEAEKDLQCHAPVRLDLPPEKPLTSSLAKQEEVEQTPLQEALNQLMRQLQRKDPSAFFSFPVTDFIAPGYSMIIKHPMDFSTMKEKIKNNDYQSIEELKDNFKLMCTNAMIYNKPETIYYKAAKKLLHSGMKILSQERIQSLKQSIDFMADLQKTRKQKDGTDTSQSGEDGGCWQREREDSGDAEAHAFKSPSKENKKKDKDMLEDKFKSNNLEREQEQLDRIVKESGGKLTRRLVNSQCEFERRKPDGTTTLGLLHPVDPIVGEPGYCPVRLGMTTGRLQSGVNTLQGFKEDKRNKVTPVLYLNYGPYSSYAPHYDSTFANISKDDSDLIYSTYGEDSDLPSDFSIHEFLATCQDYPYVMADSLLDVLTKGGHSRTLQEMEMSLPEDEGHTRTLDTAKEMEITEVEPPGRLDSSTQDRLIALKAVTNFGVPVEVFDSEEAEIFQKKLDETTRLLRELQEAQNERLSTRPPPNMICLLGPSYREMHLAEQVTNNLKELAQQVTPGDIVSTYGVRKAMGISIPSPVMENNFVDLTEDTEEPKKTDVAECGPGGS

[9] = biological target: T5, Bromodomain-containing protein 9 (Homo sapiens) (UniProt Q9H8M2); test: Inhibition of human partial length BRD9 (R130 to V259 residues) expressed in bacterial expression system at 10 uM by BROMOscan assay relative to control
T5 sequence (whole entry): T2 sequence (Q9H8M2 whole entry)

[10] = Solubility of compound by CLND method; assay type: physicochemical
[11] = Permeability by PAMPA; assay type: ADME; conditions: read-out: permeability
[12] = organism: Homo sapiens; test: Selectivity index, ratio of IC50 for binding affinity to PCAF (unknown origin) N-terminal bromodomain to IC50 for binding affinity to BRD9 (unknown origin) N-terminal bromodomain

SMILES | IC50 [1] | Ki [2] | chromatographic logD [3] | Ki [4] | Ki [5] | IC50 [6] | fold selectivity [7] | also measured
Cc1c(Nc2cccc3c2CCN(C)C3)cnn(C)c1=O | 39.8 µM | 158 nM |  |  |  |  |  | 
CCCc1c(NCc2ccccc2N2CCN(C)CC2)cnn(C)c1=O |  | 126 nM | 2.8 | > 10 µM | > 10 µM |  |  | 
CCCCn1cc(-c2cccc(C(F)(F)F)c2)c2sc(C(=N)NC3CCS(=O)(=O)CC3)cc2c1=O |  | 10 nM |  |  |  |  |  | 
Cc1c(NCc2ccccc2)cnn(C)c1=O | 25.1 µM |  | 2.9 |  |  | 1260 nM | 20 | 
C=C[C@@H](C)c1c(NCc2ccccc2N2CCN(C)CC2)cnn(C)c1=O |  | 251 nM | 3.1 | > 10 µM | > 10 µM |  |  | 
Cc1c(NCc2ccccc2N2CCN(CCCN)CC2)cnn(C)c1=O | 15.8 µM |  | 1.2 |  |  | 63.1 nM | 250 | 
Cc1c(NCc2ccccc2-c2ccccc2)cnn(C)c1=O | 12.6 µM |  | 4.8 |  |  | 100 nM | 125 | 
CC/C=C/c1c(NCc2ccccc2N2CCN(C)CC2)cnn(C)c1=O |  | > 10000 nM | 3.5 | > 10 µM | > 10 µM |  |  | 
COc1cc(-c2cn(C)c(=O)c3cnccc23)c(OC)cc1CN(C)CC(=O)NCCOCCOCCNc1cccc2c1C(=O)N(C1CCC(=O)NC1=O)C2=O (stereo not given) |  |  |  |  |  |  |  | IC50 [8]: 100 nM
C=CCc1c(NCc2ccccc2N2CCN(C)CC2)cnn(C)c1=O |  | 100 nM | 2.5 | > 10 µM | > 10 µM |  |  | 
C/C=C\Cc1c(NCc2ccccc2N2CCN(C)CC2)cnn(C)c1=O |  | 251 nM | 3 | > 10 µM | > 10 µM |  |  | 
Cc1ccc(CNc2cnn(C)c(=O)c2Cl)cc1 | 12.6 µM |  | 4 |  |  | 794 nM | 16 | 
Cc1c(NCc2ccccc2N2CCNCC2)cnn(C)c1=O | > 50.1 µM |  | 0.7 |  |  | 200 nM | > 250 | 
Cc1cccc(CNc2cnn(C)c(=O)c2Cl)c1 | 20 µM |  | 4 |  |  | 2510 nM | 8 | 
Cc1c(NCc2ccccc2N2CCCOCC2)cnn(C)c1=O | 12.6 µM |  | 3.5 |  |  | 100 nM | 125 | 
CCCCCc1c(NCc2ccccc2N2CCN(C)CC2)cnn(C)c1=O |  | 158 nM | 4.2 | > 10 µM | 1.58 µM |  |  | 
CNc1cnn(C)c(=O)c1Cl | 126 µM |  |  |  |  | 25100 nM |  | 
C/C=C/Cc1c(NCc2ccccc2N2CCN(C)CC2)cnn(C)c1=O |  | 39.8 nM | 3.1 | > 10 µM | 3.98 µM |  |  | 
CCCCc1c(Nc2cccc3c2CCN(C)C3)cnn(C)c1=O | > 50.1 µM | 79.4 nM |  |  |  |  |  | 
CCOC(=O)Nc1cc(-c2ccc(C)c(NS(C)(=O)=O)c2)nn2c(C)nnc12 |  |  |  |  |  |  |  | inhibition [9]: 100%
CCCCc1nnc2c(NC(=O)OCC)cc(-c3ccc(C)c(NS(C)(=O)=O)c3)nn12 |  |  |  |  |  |  |  | inhibition [9]: > 95%
CCc1c(NCc2ccccc2N2CCN(C)CC2)cnn(C)c1=O |  | 79.4 nM | 2.3 | 6.31 µM | 7.94 µM |  |  | 
CN1CCN(c2ccccc2CNc2cnn(C)c(=O)c2)CC1 |  |  | 1.1 |  |  |  |  | solubility kinetic [10]: ≥ 150 µg/mL; Papp [11]: 14 ×10⁻⁶ cm/s; IC50 [5]: > 50.1 µM; IC50 [2]: > 50.1 µM
Cc1ccccc1CNc1cnn(C)c(=O)c1C | 25.1 µM |  | 3.6 |  |  | 398 nM | 63 | 
C=C[C@H](C)c1c(NCc2ccccc2N2CCN(C)CC2)cnn(C)c1=O |  | 316 nM | 3.1 | > 10 µM | > 10 µM |  |  | 
CC(C)c1c(NCc2ccccc2N2CCN(C)CC2)cnn(C)c1=O |  | 316 nM | 3.1 | 7.94 µM | > 10 µM |  |  | 
C=CCCc1c(NCc2ccccc2N2CCN(C)CC2)cnn(C)c1=O |  | 398 nM | 3.2 | > 10 µM | > 10 µM |  |  | 
Cc1c(NCc2ccccc2N2CCOCC2)cnn(C)c1=O | 20 µM |  | 3.2 |  |  | 100 nM | 200 | 
Cn1ncc(NCc2ccccc2)c(Cl)c1=O | 20 µM |  | 3.2 |  |  | 2000 nM | 10 | fold selectivity [12]: 6

Reference: ChEMBL document CHEMBL4613271, “Application of Atypical Acetyl-lysine Methyl Mimetics in the Development of Selective Inhibitors of the Bromodomain-Containing Protein 7 (BRD7)/Bromodomain-Containing Protein 9 (BRD9) Bromodomains” (J Med Chem, 2020)
